Measured values published in ChEMBL document CHEMBL1201862, “PubChem BioAssay data set” (2004).
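Grown in 96-well plates, cells were treated for 48 hours with each compound at five concentrations. Insufficient inhibition: endpoint recorded as highest concentration tested. GI50 = concentration required for 50% inhibition of growth.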 Active and inactive are the calls of the source. Rule as the data show it: active = GI50 up to about 1.1 µM and inactive = higher.

Assays:
Assay in all cases: inhibition of tumour cell growth, NCI panel, 48 h
[1] = tested on: XF498
[2] = tested on: HOP-18
[3] = tested on: OVCAR-5
[4] = tested on: HCT-116
[5] = tested on: KM-20L2
[6] = tested on: SF-268
[7] = tested on: SR
[8] = tested on: HL-60
[9] = tested on: DMS-114
[10] = tested on: SK-MEL-2
[11] = tested on: A549
[12] = tested on: SK-MEL-5
[13] = tested on: NCI-H226
[14] = tested on: SK-MEL-28

Row | SMILES | GI50 [1] | GI50 [2] | GI50 [3] | GI50 [4] | GI50 [5] | GI50 [6] | GI50 [7] | GI50 [8] | GI50 [9] | GI50 [10] | GI50 [11] | GI50 [12] | GI50 [13] | GI50 [14]
1 | C/C=C/C1(NS(=O)(=O)c2ccc(C)cc2)CCC(C(C)(C)C)CC1 (stereo not drawn) | 20.2 µM (inactive) | 34.9 µM (inactive) | 20.7 µM (inactive) | 20.1 µM (inactive) | 20.1 µM (inactive) | 29.6 µM (inactive) | 13.6 µM (inactive) | 23.4 µM (inactive) | 27 µM (inactive) | 17.3 µM (inactive) | 40.7 µM (inactive) | 17.5 µM (inactive) | 20.6 µM (inactive) | 
2 | O=C(NOC(=O)c1ccc([N+](=O)[O-])cc1)c1ccc(Cl)cc1 | 85.9 µM (inactive) | 2.9 µM (inactive) | > 100 µM (inactive) | > 100 µM (inactive) | 97.1 µM (inactive) | > 100 µM (inactive) | > 100 µM (inactive) | 15.8 µM (inactive) | 44.5 µM (inactive) | > 100 µM (inactive) | > 100 µM (inactive) | 65.2 µM (inactive) |  | > 100 µM (inactive)
3 | COc1ccc(CC2NCCc3cc(OC)c(OC)cc32)cc1 (stereo not drawn) | > 100 µM (inactive) | > 100 µM (inactive) | > 100 µM (inactive) | > 100 µM (inactive) | > 100 µM (inactive) | > 100 µM (inactive) | > 100 µM (inactive) | > 100 µM (inactive) | 59.6 µM (inactive) | > 100 µM (inactive) | > 100 µM (inactive) | > 100 µM (inactive) | > 100 µM (inactive) | > 100 µM (inactive)
4 | CC1=C(C(=O)Nc2ccccc2C)C(c2ccccc2O)C(C(=O)Nc2ccccc2C)=C(C)N1 | 22.3 µM (inactive) | 17.9 µM (inactive) | 30.8 µM (inactive) | 18.4 µM (inactive) | 20.2 µM (inactive) | 33.7 µM (inactive) | 12.3 µM (inactive) | 21 µM (inactive) | 22 µM (inactive) | 17.1 µM (inactive) | 33.7 µM (inactive) | 20 µM (inactive) | 23.8 µM (inactive) | 28 µM (inactive)
5 | Cc1c2nc3ccccc3sc-2cc(=O)c1C | 28.4 µM (inactive) | > 100 µM (inactive) | > 95.5 µM (inactive) | 12.7 µM (inactive) | > 72.6 µM (inactive) | 25.6 µM (inactive) | > 10 µM (inactive) | 14.1 µM (inactive) | 10.2 µM (inactive) | 14.4 µM (inactive) | 48.8 µM (inactive) | 34.8 µM (inactive) | > 100 µM (inactive) | 
6 | Clc1ccc(-c2c(C3=NCCN3)nnn2-c2ccc(Cl)cc2)cc1 | 15 µM (inactive) | > 100 µM (inactive) | 33 µM (inactive) | 15 µM (inactive) | 15.7 µM (inactive) | 32.2 µM (inactive) | 13.4 µM (inactive) | 17.5 µM (inactive) | 16.4 µM (inactive) | 13.1 µM (inactive) | 53.2 µM (inactive) | 16.8 µM (inactive) | 60.4 µM (inactive) | 25.1 µM (inactive)
7 | N#CC(Sc1ccccc1)C(N)=O (stereo not drawn) | > 100 µM (inactive) | > 100 µM (inactive) | > 100 µM (inactive) | > 100 µM (inactive) | > 100 µM (inactive) | > 100 µM (inactive) | > 100 µM (inactive) | > 100 µM (inactive) | > 100 µM (inactive) |  | > 100 µM (inactive) | > 100 µM (inactive) | > 100 µM (inactive) | 
8 | CCCCNS(=O)(=O)c1ccc(-c2ccc3c(c2)-c2ccc(S(=O)(=O)NCCCC)cc2S3(=O)=O)cc1 | 10.3 µM (inactive) | 20.7 µM (inactive) | > 100 µM (inactive) | 14.9 µM (inactive) | 4.15 µM (inactive) | 9.48 µM (inactive) | 72.1 µM (inactive) | > 100 µM (inactive) | 7.52 µM (inactive) | 12.9 µM (inactive) | 14 µM (inactive) | 2.18 µM (inactive) | 12.6 µM (inactive) | 10 µM (inactive)
9 | O=C(CCc1cc(-c2ccccc2)[nH]c(=S)n1)Nc1ccccc1[N+](=O)[O-] | 42 µM (inactive) | > 100 µM (inactive) | > 100 µM (inactive) | > 100 µM (inactive) | > 100 µM (inactive) | > 100 µM (inactive) | > 100 µM (inactive) | > 100 µM (inactive) | > 100 µM (inactive) | > 100 µM (inactive) | > 100 µM (inactive) | > 100 µM (inactive) | > 100 µM (inactive) | > 100 µM (inactive)
10 | O=C(CC(=O)c1cccc([N+](=O)[O-])c1)C(=O)Nc1ccccc1 | > 100 µM (inactive) | > 100 µM (inactive) | > 100 µM (inactive) | > 100 µM (inactive) | > 100 µM (inactive) | > 100 µM (inactive) |  | > 100 µM (inactive) | > 100 µM (inactive) | > 100 µM (inactive) | > 100 µM (inactive) | > 100 µM (inactive) | > 100 µM (inactive) | > 100 µM (inactive)
11 | C[Si](C)(C)/C(Br)=C\CCN1C(=O)CCC1=O | > 100 µM (inactive) | > 100 µM (inactive) | > 100 µM (inactive) | > 100 µM (inactive) | > 100 µM (inactive) | > 100 µM (inactive) | > 100 µM (inactive) | > 100 µM (inactive) | > 35.2 µM (inactive) | > 100 µM (inactive) | > 100 µM (inactive) | > 100 µM (inactive) | > 100 µM (inactive) | > 100 µM (inactive)
12 | Nc1nc2sc3ccccc3c(=O)n2n1 | > 100 µM (inactive) | > 100 µM (inactive) | > 100 µM (inactive) | > 100 µM (inactive) | > 100 µM (inactive) | > 100 µM (inactive) | > 100 µM (inactive) | > 100 µM (inactive) | > 100 µM (inactive) | > 100 µM (inactive) | > 100 µM (inactive) | > 100 µM (inactive) | > 100 µM (inactive) | > 100 µM (inactive)
13 | COc1cccc(-c2cc(O)c3cc4c(cc3n2)OCO4)c1 | 0.042 µM (active) | 0.638 µM (active) | 0.251 µM (active) | 0.0902 µM (active) | 0.19 µM (active) | 0.731 µM (active) | 0.169 µM (active) | 0.0605 µM (active) | 0.232 µM (active) | 0.057 µM (active) | 0.313 µM (active) | 0.0352 µM (active) | 0.198 µM (active) | > 53.1 µM (inactive)
14 | CCCCCCCCCCCCCC(=O)O[C@H]1CC[C@H](NC(=O)[C@H](OC)[C@H](O)[C@@H](O)[C@H](O)/C=C/C(C)C)C(=O)N(C)C1 [BENGAMIDE B] | 0.0164 µM (active) | 0.134 µM (active) | 4.65 µM (inactive) | 0.00247 µM (active) | 0.00577 µM (active) | 0.0036 µM (active) | 0.0021 µM (active) | 0.01 µM (active) | 0.00284 µM (active) | 0.0334 µM (active) | < 0.0015 µM (active) | 0.0199 µM (active) | 0.00592 µM (active) | 0.0113 µM (active)
15 | C/C(=C\Cc1cc(O)ccc1O)CCc1c(C)c(O)c(O)c(C=O)c1C [PANICEIN C] | 20 µM (inactive) | 18.7 µM (inactive) |  | 19.1 µM (inactive) | 37.5 µM (inactive) | 27 µM (inactive) | 7.38 µM (inactive) | > 100 µM (inactive) | 18 µM (inactive) | 23.2 µM (inactive) | 30.4 µM (inactive) | 15.5 µM (inactive) | 34.5 µM (inactive) | 18.1 µM (inactive)
